According to paper PMC12508576, “Implementing a trilineage differentiation in the ReproTracker assay for improved teratogenicity assessment” (Frontiers in Toxicology, 2025):
Read-outs that look alike come from different tables or passages of the source.

Assays:
[1] = cited from earlier work
[2] = system: hiPSCs differentiating into hepatocyte-like cells; conditions: cited from earlier work
[3] = system: hiPSCs trilineage differentiation (cardiomyocytes, hepatocytes, neural rosette-like cells); experiment: ReproTracker trilineage differentiation, overall teratogenicity prediction; conditions: lowest tested concentration with significant decrease of at least one biomarker, trilineage assay; 'N.d. up to x' given as > x
From the text: (§6) In ReproTracker, teratogenicity prediction of test compounds is based on a Weight of Evidence (WoE) approach, which considers both the significant decrease in biomarker expression and the morphological/functional changes following exposure to test compounds throughout differentiation assays.
(§7) This threshold, for any given biomarker, is defined as the average minus one time the standard deviation (SD) of the biomarker expression levels in solvent-exposed control cultures throughout the experiment. Reduced expression of the selected biomarkers below the set threshold in a concentration-dependent manner, upon exposure to a minimum of 2 consecutive non-cytotoxic concentrations would be considered significant (noted as +). A decrease in expression below the threshold without a clear dose-response would lead to an equivocal classification (noted as (+)). An increase in expression or a lack of response would be considered negative (noted as -). Disruption of morphology/functionality of the cultures upon compound exposure at the two highest tested concentrations in all biological replicates is considered as a morphological disruption (noted as +). Absence of significant effects results in a negative score (noted as -).
(§8) For each differentiation assay, the expression of two biomarkers and a morphological/functional read-out are considered. In the hepatocyte and cardiomyocyte differentiation, FOXA2 and BMP4 are considered germ-layer-specific biomarkers, while AFP and MYH6 are considered cell-specific biomarkers, respectively. When applying the WoE approach, the cell-specific biomarkers in hepatocyte and cardiomyocyte differentiation are given higher weight compared to the germ-layer specific biomarkers and morphology/functionality. For the neural differentiation, both PAX6 and NESTIN are given equal weight as they are considered cell-specific markers. In this case, both biomarkers are given higher weight than the morphological read-out.
(§9) Every measurement/observation is assigned a score (positive, negative, or equivocal). […] In the ReproTracker assay, a compound is identified as a teratogen if it receives a positive score in at least one of the trilineage differentiation assays (cardiomyocyte, hepatocyte, or neural differentiation). […] If neither biomarker expression levels nor morphology/functionality are affected in any of the differentiation assays, the response is considered negative.

[4] = system: hiPSCs differentiating into cardiomyocyte-like cells; conditions: lineage call; footnote b: previously published data; ref Jamalpoor et al., 2022; cited from earlier work
[5] = system: hiPSCs differentiating into neural rosette-like cells
Protocol: (§1) Prior to differentiation, the cells were harvested and dissociated into single cells using Gibco™ TrypLE™ Select (ThermoFisher Scientific; Bleiswijk, Netherlands) for 5 min at 37 °C. Cells were seeded in Matrigel™-coated 24-well plates (ThermoFisher Scientific) in mTeSR™1 containing RevitaCell™ Supplement (ThermoFisher Scientific). […] The cells were cultured in this medium until D3. From D3 until the end of the differentiation protocol (D13) (one-step protocol), cells were cultured in N2B27 medium without ROCK inhibitor or LDN193189. In the case of the replating protocol, cells were replated at D7 and grown in the same medium until day 13. At the end of the differentiation, morphology of the cells was assessed using an Operetta CLS (Revvity) instrument. The expected morphology for each of the lineages, to ensure data acceptance and correct differentiations, is further described in Section 2.9 of the methods section. The trilineage differentiation was replicated in 96-well plates (ThermoFisher Scientific and Revvity Phenoplate) using the same differentiation protocols with an adapted number of cells for the seeding. And termination at D14.
(§2) Cells were harvested, and total RNA was isolated using the Maxwell® RSC simply RNA Cells Kit (cat. no.: #AS1390; Promega) on a Maxwell automated purification instrument (Maxwell RSC 48; Promega). […] Each individual primer was paired with its corresponding fluorophore and quencher and adjusted accordingly depending on gene abundance. Primer and probe sequences are described in Supplementary Table S1.
(§3) Data acceptance was based on the appropriate expression of the assessed biomarker genes in the differentiated populations, at appropriate times during differentiation. Failure to observe the expected temporal expression of key, lineage-specific biomarkers, during the cell fate choices associated with each differentiation protocol, would result in the experiment being invalidated.
(§4) To follow morphological changes throughout the hepatocyte and neural differentiation protocol, brightfield images of the cells were acquired after each medium refresh using an iRiS digital cell imaging microscope (Logos Biosystems) or an Operetta CLS (Revvity) instrument. Images were scored based on visual assessment. Cardiac contractability of cardiomyocytes was evaluated visually using an iRiS digital cell imaging microscope (Logos Biosystems).
(§5) Morphologically, cardiomyocytes are expected to group in fiber-like 3D structures that distribute throughout the entire plate. Aside from morphology, an additional criterion for cardiomyocyte differentiation in each experimental setup is for the contracting mature cardiomyocyte cultures exposed to solvent controls, to reach 75%. […] Neural rosettes are recognized by well-defined cell boundaries and multi-layered cultures. Functional/morphological assessment was completed independently from biomarker data analyses. Morphology scores were confirmed by a second person. Failure to observe the anticipated cell morphology/functionality throughout differentiation would result in invalidation of the experiment. Disruption in the morphology of cardiomyocytes is described as a lack of 3D-fibre-like structures in the cultures as well as a clear lack of contractions. Morphologically aberrant hepatocytes are characterized by a lack of polygonal structures with smaller cytoplasm that in the control cultures and the formation of dark cell-dense structures, commonly indicative of clumps of dead cells with big empty spaces between cell colonies.

[6] = system: hiPSCs differentiating into hepatocyte-like cells; experiment: ReproTracker hepatocyte differentiation assay
Protocol: as §1, §2, §3, §4, §5

undifferentiated hiPSCs = experiment: Concentration-range selection and cytotoxicity assessment (AlamarBlue); conditions: lowest concentration that induced a maximum of 20% cytotoxicity in hiPSCs, 7 days
Protocol: In short, hiPSCs were exposed to 20 consecutive concentrations of the test compounds using 1 mM or the maximum soluble concentration as the top concentration. Test compounds were added to the medium prior to the refreshes at D0 and D3. Cytotoxicity was estimated at D7; upon completion of the experiments, cells were incubated with resazurin solution (0.01 mg/mL in PBS) and measured absorbance (excitation 530 nm and emission 590 nm). Results were normalized against vehicle controls (0.1% v/v DMSO).
All compounds were tested at five consecutive concentrations in two-fold dilution steps. The top concentration was determined as the lowest concentration that induced a maximum of 20% cytotoxicity in the concentration range finding experiments. Compounds were then diluted 2-fold using serial dilutions.
Data acceptance for dose-range finding experiments was based on the response to positive and negative assay controls, and compound solubility and cytotoxicity. […] Concentrations of compound(s) inducing cytotoxicity and therefore reducing cell survival below 80% were excluded from further testing in differentiation assays.
Thus, to determine cytotoxicity of the test compounds, undifferentiated hiPSCs were exposed to 20 consecutive concentrations at 2-fold dilutions for 7 days. The lowest concentration that induced a maximum of 20% cytotoxicity in the concentration range finding experiment was applied as top concentration for the differentiation experiments.

[7] = system: hiPSCs differentiating into cardiomyocyte-like cells; experiment: ReproTracker cardiomyocyte differentiation assay
Protocol: as §1, §2, §3, §4, §5

[8] = system: hiPSCs trilineage differentiation (cardiomyocytes, hepatocytes, neural rosette-like cells); conditions: human
From the text: as §6, §7, §8, §9

[9] = read-out: Human therapeutic cmax, Table 1 (R3 I (2021), Schulz et al. (2020) and others)
[10] = lineage call, footnote b: previously published data, ref Jamalpoor et al., 2022
[11] = lineage call (positive/equivocal/negative)

ReproTracker results Neural rosette-like cells [5] | ReproTracker results Hepatocyte-like cells [6] | ReproTracker results Cardiomyocyte-like cells [7] | Structure (SMILES) | Cmax [1, 9] [nM] | ReproTracker results Hepatocyte-like cells [2, 10] | ReproTracker results LOAEL [3] | ReproTracker results Cardiomyocyte-like cells [4] | LOAEL compared with respective human therapeutic Cmax [8] | ReproTracker results LOAEL [8] | also measured
Negative | Negative | Negative | O=c1[nH]cc(F)c(=O)[nH]1 [5-Fluorouracil] | 400 to 2300 |  | N.d. up to 1.3 µM |  |  |  | top concentration for the differentiation experiments (undifferentiated hiPSCs): 1 µM
 |  |  | COc1cc(C)c(/C=C/C(C)=C/C=C/C(C)=C/C(=O)O)c(C)c1C [Acitretin] | 30 to 900 |  | ≤0.2 µM |  | equal to or below |  | ReproTracker results Hepatocyte-like cells [6, 11]: Positive; ReproTracker results Cardiomyocyte-like cells [7, 11]: Positive; ReproTracker results Neural rosette-like cells [5, 11]: Positive
Negative |  |  | CC1(C)S[C@@H]2[C@H](NC(=O)[C@H](N)c3ccc(O)cc3)C(=O)N2[C@H]1C(=O)O [Amoxicillin] | 1400 to 41000 |  |  | Negative |  |  | 
Positive | Negative | Positive | Cc1nc(Nc2ncc(C(=O)Nc3c(C)cccc3Cl)s2)cc(N2CCN(CCO)CC2)n1 [Dasatinib] | 70 |  |  |  | equal to or below | 0.00003 to 0.00013 µM | 
Positive | Negative | Negative | C[C@@H]1C[C@H]2[C@@H]3CCC4=CC(=O)C=C[C@]4(C)[C@@]3(F)[C@@H](O)C[C@]2(C)[C@@]1(O)C(=O)CO [Dexamethasone] | 100 to 700 |  |  |  |  | 1.95 µM | 
Negative |  |  | CCCCCCCCc1ccc(CCC(N)(CO)CO)cc1 [Fingolimod] | 3 to 50 | Positive |  | Positive | higher | ≤0.25 µM | 
Positive | Negative | Negative | OC(Cn1cncn1)(Cn1cncn1)c1ccc(F)cc1F [Fluconazole] | 6500 to 19600 |  |  |  |  | 125 µM | NESTIN gene expression at D13 [5]: decreased; PAX6 gene expression at D7 [5]: decreased
Negative |  |  | Nc1nc2ncc(CNc3ccc(C(=O)N[C@@H](CCC(=O)O)C(=O)O)cc3)nc2c(=O)[nH]1 [Folic acid] | 2 to 10 | Negative | N.d. up to 1.95 µM |  |  |  | 
Positive | Positive | Positive | CC1=C(/C=C/C(C)=C/C=C/C(C)=C\C(=O)O)C(C)(C)CCC1 [Isotretinoin] | 4 to 8 |  |  |  | equal to or below | ≤0.0041 µM | 
Positive |  |  | Cn1cc[nH]c1=S [Methimazole] | 4400 to 20200 |  |  | Positive |  |  | 
Negative | Negative | Negative | CN(Cc1cnc2nc(N)nc(N)c2n1)c1ccc(C(=O)N[C@@H](CCC(=O)O)C(=O)O)cc1 [Methotrexate] | 20 to 1100 |  |  |  | equal to or below | N.d. up to 0.122 µM | top concentration for the differentiation experiments (undifferentiated hiPSCs): 0.1 µM
Negative |  |  | CCN(CC)CCNC(=O)c1cc(Cl)c(N)cc1OC [Metoclopramide] | 30 to 500 | Negative | N.d. up to 62.5 µM | Negative |  |  | 
Positive | Positive | Negative | O=C1NC(=O)C(c2ccccc2)(c2ccccc2)N1 [Phenytoin] | 39600 to 79300 |  |  |  | equal to or below | 31.3 µM | NESTIN gene expression at D13 [5]: without affecting; PAX6 gene expression at D7 [5]: downregulated; morphology of neural rosette-like cells [5]: disrupted
Positive | Negative | Negative | NC(=O)c1ncn([C@@H]2O[C@H](CO)[C@@H](O)[C@H]2O)n1 [Ribavirin] | 3200 |  |  |  | equal to or below | ≤1 µM | 
Negative |  |  | N[C@@H](CC(=O)N1CCn2c(nnc2C(F)(F)F)C1)Cc1cc(F)c(F)cc1F [Sitagliptin] | 100 to 900 | Negative | N.d. up to 1000 µM | Negative |  |  | 
Negative |  |  | Cc1ncc(C[n+]2csc(CCO)c2C)c(N)n1 [Thiamine] | 400 | Negative | N.d. up to 1000 µM | Negative |  |  | 
 |  |  | CC(=O)CC(c1ccccc1)c1c(O)c2ccccc2oc1=O (centres unmarked) [Warfarin] |  |  | 62.5 to 250 µM |  |  |  | Cmax ([1]; human, in vivo): 3200 to 9700 nM; ReproTracker results Hepatocyte-like cells [2]: Positive; ReproTracker results Neural rosette-like cells [5, 11]: Negative

Structure (SMILES) | ReproTracker results Neural rosette-like cells [5] | ReproTracker results Hepatocyte-like cells [6] | ReproTracker results Cardiomyocyte-like cells [7] | Cmax [1, 9] [nM] | ReproTracker results Hepatocyte-like cells [2, 10] | ReproTracker results LOAEL [3] | ReproTracker results Cardiomyocyte-like cells [4] | LOAEL compared with respective human therapeutic Cmax [8] | ReproTracker results LOAEL [8] | also measured
CC(O)CO (centres unmarked) [1,2-propylene glycol] | Negative |  |  | 300 to 3100 | Negative | N.d. up to 1000 µM | Negative |  |  | 
NS(=O)(=O)c1cc2c(cc1Cl)NCNS2(=O)=O [Hydrochlorothiazide] | Negative |  |  | 100 to 200 | Positive |  | Positive |  |  | 
NC(=O)NO [Hydroxyurea] | Positive | Positive | Negative | 263000 |  | ≤2.0 µM |  | equal to or below |  | 
Cc1ccc(NC(=O)c2ccc(CN3CCN(C)CC3)cc2)cc1Nc1nccc(-c2cccnc2)n1 [Imatinib] | Positive |  | Negative | 1500 |  |  |  | equal to or below | 0.1 µM | ReproTracker results Hepatocyte-like cells [6, 11]: Positive
N#C[C@@H]1CCCN1C(=O)CNC12CC3CC(CC(O)(C3)C1)C2 [Vildagliptin] | Positive |  | Negative | 600 to 1000 |  |  |  |  | 125 µM | ReproTracker results Hepatocyte-like cells [6, 11]: Negative
